Laboratory results published in patent publication US20210094933A1, “RAPAFUCIN DERIVATIVE COMPOUNDS AND METHODS OF USE THEREOF” (The Johns Hopkins University, priority 2019, published 2021).
pIC50: −log10 of the molar value.

Columns and labels:
Assay type in all cases: cell-based
[1] = tested on: A549; assay: Cell proliferation assay (Prolif.), IC50 relative to DMSO control; conditions: A549 cells; for Prolif, A549: IC50 class relative to DMSO control
Experimental: (§1) Cell Proliferation Assay (Prolif.) Guo et al. (2018) Nat. Chem. 11:254-63. Specific cell lines are indicated in each assay and cultured in complete growth media. Activity is scored according to the IC50 values relative to DMSO control. “Low” indicates an IC50 greater than 600 nM, “Medium” indicates an IC50 between 300 nM and 600 nM “High” indicates an IC50 less than 300 nM. “Rel.Uptake” refers to uptake activity characterization relative to a single concentration assay. “Low” indicates a response greater than 0.6 times the activity relative to DMSO, “Medium” indicates a response between 0.6 and 0.3 times the activity relative to DMSO, “High” indicates a response less than 0.3 times the activity relative to DMSO.

[2] = Cell proliferation assay, single concentration, response relative to DMSO; cell line indicated in each table; conditions: A549 cells
Experimental: as §1

[3] = Nucleoside uptake assay, single concentration (Rel.Uptake), response relative to DMSO; cell line indicated in each table; conditions: 293 T cells, nucleoside uptake at single concentration
Experimental: (§2) Nucleoside Uptake Assay (uptake). Nuceloside uptake assays were performed with using 3H-Thymidine as described in Guo et al. (2018) Nat. Chem, 11:254-63. Specific cell lines are indicated in each assay and cultured in complete growth media. Activity is scored according to the IC50 values relative to DMSO control. “Low” indicates an IC50 greater than 600 nM, “Medium” indicates an IC50 between 300 nM and 600 nM “High” indicates an IC50 less than 300 nM. “Rel.Uptake” refers to uptake activity characterization relative to a single concentration assay. “Low” indicates a response greater than 0.6 times the activity relative to DMSO, “Medium” indicates a response between 0.6 and 0.3 times the activity relative to DMSO, “High” indicates a response less than 0.3 times the activity relative to DMSO.

[4] = tested on: 293T; assay: Nucleoside uptake assay (3H-Thymidine), IC50 relative to DMSO control; conditions: 293T cells; Table 14
Experimental: as §2

Compound	Prolif, A549 [1]	Rel. Prolif., A549 [2]	Rel. Uptake, 293 T [3]	pIC50 [4]	pIC50 ([1]; Homo sapiens)
CCCC[C@H]1C(=O)N[C@@H](Cc2ccc3ccccc3c2)C(=O)N(C)[C@@H](COC(C)(C)C)C(=O)NCC(=O)N(C)CCC=CC(=O)OCC(C)(C)C(=O)C(=O)N2CCCC[C@H]2C(=O)O[C@H](CCc2cc(OC)c(OC)c(OC)c2)c2cccc(c2)OCC(=O)N1C [Compound 560]	medium	medium			
CCCC[C@H]1C(=O)C[C@@H](Cc2ccc3ccccc3c2)C(=O)N(C)[C@@H](COC(C)(C)C)C(=O)NCC(=O)N(C)CCC=CC(=O)OCC(C)(C)C(=O)C(=O)N2CCCC[C@H]2C(=O)O[C@H](CCc2ccc(OC)c(OC)c2OC)c2cccc(c2)OCC(=O)N1C [Compound 561]	medium	medium			
CCCC[C@H]1C(=O)N[C@@H](Cc2ccc3ccccc3c2)C(=O)N(C)[C@@H](COC(C)(C)C)C(=O)NCC(=O)N(C)CCC=CC(=O)OCC(C)(C)C(=O)C(=O)N2CCCC[C@H]2C(=O)O[C@H](CCc2cc(OC)c(OC)cc2OC)c2cccc(c2)OCC(=O)N1C [Compound 562]	medium	medium			
CCCC[C@H]1C(=O)N[C@@H](Cc2ccc3ccccc3c2)C(=O)N(C)[C@@H](COC(C)(C)C)C(=O)NCC(=O)N(C)CCC=CC(=O)OCC(C)(C)C(=O)C(=O)N2CCCC[C@H]2C(=O)O[C@H](CCc2cc(OC)cc(OC)c2OC)c2cccc(c2)OCC(=O)N1C [Compound 563]	low	low			
CCCC[C@H]1C(=O)N[C@@H](Cc2ccc3ccccc3c2)C(=O)N(C)[C@@H](COC(C)(C)C)C(=O)NCC(=O)N(C)CCC=CC(=O)OCC(C)(C)C(=O)C(=O)N2CCCC[C@H]2C(=O)O[C@H](CCc2c(OC)ccc(OC)c2OC)c2cccc(c2)OCC(=O)N1C [Compound 564]	low	low			
CCCC[C@H]1C(=O)N[C@@H](Cc2ccc3ccccc3c2)C(=O)N(C)[C@@H](COC(C)(C)C)C(=O)NCC(=O)N(C)CCC=CC(=O)OCC(C)(C)C(=O)C(=O)N2CCCC[C@H]2C(=O)O[C@H](CCc2ccc(OC)c(OC)c2O)c2cccc(c2)OCC(=O)N1C [Compound 565]	medium	medium			
CCCC[C@H]1C(=O)N[C@@H](Cc2ccc3ccccc3c2)C(=O)N(C)[C@@H](COC(C)(C)C)C(=O)NCC(=O)N(C)CCC=CC(=O)OCC(C)(C)C(=O)C(=O)N2CCCC[C@H]2C(=O)O[C@H](CCc2cc(O)c(OC)c(OC)c2)c2cccc(c2)OCC(=O)N1C [Compound 566]	medium	medium			
CCCC[C@H]1C(=O)N[C@@H](Cc2ccc3ccccc3c2)C(=O)N(C)[C@@H](COC(C)(C)C)C(=O)NCC(=O)N(C)CCC=CC(=O)OCC(C)(C)C(=O)C(=O)N2CCCC[C@H]2C(=O)O[C@H](CCc2cc(OC)c(OC)cc2O)c2cccc(c2)OCC(=O)N1C [Compound 567]	medium	medium			
CCCC[C@H]1C(=O)N[C@@H](Cc2ccc3ccccc3c2)C(=O)N(C)[C@@H](COC(C)(C)C)C(=O)NCC(=O)N(C)CCC=CC(=O)OCC(C)(C)C(=O)C(=O)N2CCCC[C@H]2C(=O)O[C@H](CCc2cc(F)c(OC)c(OC)c2)c2cccc(c2)OCC(=O)N1C [Compound 568]	medium	medium			
CCCC[C@H]1C(=O)N[C@@H](Cc2ccc3ccccc3c2)C(=O)N(C)[C@@H](COC(C)(C)C)C(=O)NCC(=O)N(C)CCC=CC(=O)OCC(C)(C)C(=O)C(=O)N2CCCC[C@H]2C(=O)O[C@H](CCc2cc(OC)c(OC)cc2F)c2cccc(c2)OCC(=O)N1C [Compound 569]	medium	medium			
CCCC[C@H]1C(=O)N[C@@H](Cc2ccc3ccccc3c2)C(=O)N(C)[C@@H](COC(C)(C)C)C(=O)NCC(=O)N(C)CCC=CC(=O)OCC(C)(C)C(=O)C(=O)N2CCCC[C@H]2C(=O)O[C@H](CCc2ccc(OC)c(OC)c2F)c2cccc(c2)OCC(=O)N1C [Compound 570]	medium	medium			
CCCC[C@H]1C(=O)N[C@@H](Cc2ccc3ccccc3c2)C(=O)N(C)[C@@H](COC(C)(C)C)C(=O)NCC(=O)N(C)CCC=CC(=O)OCC(C)(C)C(=O)C(=O)N2CCN(C(=O)OCC3c4ccccc4-c4ccccc43)C[C@H]2C(=O)O[C@H](CCc2ccc(OC)c(OC)c2)c2cccc(c2)OCC(=O)N1C [Compound 571]	low	low			
CCCC[C@H]1C(=O)N[C@@H](Cc2ccc3ccccc3c2)C(=O)N(C)[C@@H](COC(C)(C)C)C(=O)NCC(=O)N(C)CCC=CC(=O)OCC(C)(C)C(=O)C(=O)N2CCN(C)C[C@H]2C(=O)O[C@H](CCc2ccc(OC)c(OC)c2)c2cccc(c2)OCC(=O)N1C [Compound 572]	medium	medium			
CCCC[C@H]1C(=O)N[C@@H](Cc2ccc3ccccc3c2)C(=O)N(C)[C@@H](COC(C)(C)C)C(=O)NCC(=O)N(C)CCC=CC(=O)OCC(C)(C)C(=O)C(=O)N2CCCC[C@H]2C(=O)O[C@H](CCc2ccc(OC)c(OC)c2)c2cc(ccc2F)OCC(=O)N1C [Compound 573]	low	low			
CCCC[C@H]1C(=O)N[C@@H](Cc2ccc3ccccc3c2)C(=O)N(C)[C@@H](COC(C)(C)C)C(=O)NCC(=O)N(C)CCC=CC(=O)OCC(C)(C)C(=O)C(=O)N2CCCC[C@H]2C(=O)O[C@H](CCc2ccc(OC)c(OC)c2)c2cc(F)cc(c2)OCC(=O)N1C [Compound 574]	low	low			
CCCC[C@H]1C(=O)N[C@@H](Cc2ccc3ccccc3c2)C(=O)N(C)[C@@H](COC(C)(C)C)C(=O)NCC(=O)N(C)CCC=CC(=O)OCC(C)(C)C(=O)C(=O)N2CCCC[C@H]2C(=O)O[C@H](CCc2ccc(OC)c(OC)c2)c2ccc(F)c(c2)OCC(=O)N1C [Compound 576]	medium	medium			
CCCC[C@H]1C(=O)N[C@@H](Cc2ccc3ccccc3c2)C(=O)N(C)[C@@H](COC(C)(C)C)C(=O)NCC(=O)N(C)CCC=CC(=O)OCC(C)(C)C(=O)C(=O)N2CCCC[C@H]2C(=O)O[C@H](CCc2ccc(OC)c(OC)c2)c2cccc(c2F)OCC(=O)N1C [Compound 1563]	high		high		
CCCC[C@H]1C(=O)N[C@@H](Cc2ccc3ccccc3c2)C(=O)N(C)[C@@H](COC(C)(C)C)C(=O)NCC(=O)N(C)CCC=CC(=O)OCC(C)(C)C(=O)C(=O)N2CCCC[C@H]2C(=O)O[C@H](CCc2ccc(OC)c(O)c2)c2cccc(c2)OCC(=O)N1C [Compound 1564]	high		high		
CCCC[C@H]1C(=O)N[C@@H](Cc2ccc3ccccc3c2)C(=O)N(C)[C@@H](COC(C)(C)C)C(=O)NCC(=O)N(C)CCC=CC(=O)OCC(C)(C)C(=O)C(=O)N2CCCC[C@H]2C(=O)O[C@H](CCc2ccc(OC)c(OC)c2)c2cncc(c2)OCC(=O)N1C [Compound 1565]	low		low		
COc1ccc(CC[C@H]2OC(=O)[C@@H]3CCCCN3C(=O)C(=O)C(C)(C)COC(=O)C=CCCN(C)C(=O)[C@H](CC(C)C)N(C)C(=O)[C@H]3CCCN3C(=O)[C@H](Cc3ccc(CC(=O)NCc4ccccc4)cc3)NC(=O)[C@H](c3ccccc3)NC(=O)CCC(=O)Nc3cccc2c3)cc1OC [Compound 1590]			High (“High” indicates a response less than 0.3 times the activity relative to DMSO)	< 6.22	
CCCCCCNC(=O)Cc1ccc(C[C@@H]2NC(=O)[C@H](c3ccccc3)NC(=O)CCC(=O)Nc3cccc(c3)[C@@H](CCc3ccc(OC)c(OC)c3)OC(=O)[C@@H]3CCCCN3C(=O)C(=O)C(C)(C)COC(=O)C=CCCN(C)C(=O)[C@H](CC(C)C)N(C)C(=O)[C@H]3CCCN3C2=O)cc1 [Compound 1591]			Med	< 6.22	
C=C1NCC(=O)N(C)CC/C=C\C(=O)OCC(C)(C)C(=O)C(=O)N2CCCC[C@H]2C(=O)O[C@H](CCc2ccc(OC)c(OC)c2)c2cccc(c2)NC(=O)CCC(=O)N(C)[C@@H](CC(C)C)C(=O)N[C@H](Cc2ccccc2)C(=O)N(C)[C@H]1[C@@H](C)CC [Compound 1592]			Low (“Low” indicates a response greater than 0.6 times the activity relative to DMSO)		> 6.52
